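Following 48 hours of exposure in 96-well plates, responses at five concentrations were used to interpolate endpoints linearly. Abbreviation: GI50, concentration required for 50% inhibition of growth.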 Activity calls are given as the source filed them. Rule as the data show it: active = GI50 up to about 1.1 µM and inactive = higher.
Legend:
Experiment in all cases: DTP human tumour cell line panel, 48 h
U-251 = tested on: U-251
NCI-H226 = tested on: NCI-H226
SF-295 = tested on: SF-295
RXF 393 = tested on: RXF 393
DMS-273 = tested on: DMS-273
SW-620 = tested on: SW-620
DMS-114 = tested on: DMS-114
HCT-116 = tested on: HCT-116
SNB-75 = tested on: SNB-75
NCI-H460 = tested on: NCI-H460
CAKI-1 = tested on: CAKI-1
SR = tested on: SR
SF-268 = tested on: SF-268
SNB-78 = tested on: SNB-78
EKVX = tested on: EKVX
SK-MEL-2 = tested on: SK-MEL-2
CCRF-CEM = tested on: CCRF-CEM

Measured: GI50

O=[N+]([O-])c1c(/C=N/c2ccccc2)oc(-c2ccc3c(c2)OCO3)c1-c1ccc2c(c1)OCO2
inactive: U-251 > 100 µM | NCI-H226 48.8 µM | SF-295 > 100 µM | RXF 393 > 100 µM | DMS-273 > 100 µM | SW-620 > 100 µM | DMS-114 60.7 µM | HCT-116 > 100 µM | SNB-75 50.2 µM | NCI-H460 > 100 µM | CAKI-1 > 100 µM | SR > 100 µM | SF-268 > 100 µM | SNB-78 > 100 µM

CSc1nc2c(c(O)c(C)c(=O)n2C2OC(COC(C)=O)C(OC(C)=O)C(OC(C)=O)C2OC(C)=O)c(=O)n1C (stereo not given)
inactive: U-251 > 100 µM | NCI-H226 > 100 µM | SF-295 > 100 µM | EKVX > 100 µM | RXF 393 > 100 µM | DMS-273 > 100 µM | SK-MEL-2 > 100 µM | SW-620 > 100 µM | DMS-114 > 100 µM | HCT-116 > 100 µM | SNB-75 > 100 µM | CCRF-CEM > 100 µM | NCI-H460 > 100 µM | CAKI-1 > 100 µM | SF-268 > 100 µM | SNB-78 > 100 µM

O=C1c2cccc3cc([N+](=O)[O-])cc(c23)C(=O)N1NC1=NCCN1
inactive: U-251 > 100 µM | NCI-H226 > 100 µM | SF-295 > 100 µM | EKVX > 100 µM | RXF 393 > 100 µM | DMS-273 > 100 µM | SK-MEL-2 > 100 µM | SW-620 > 100 µM | DMS-114 > 100 µM | HCT-116 > 100 µM | SNB-75 > 100 µM | CCRF-CEM > 100 µM | NCI-H460 > 100 µM | CAKI-1 > 100 µM | SR > 100 µM | SF-268 > 100 µM | SNB-78 > 100 µM

CC(C)C(=O)Nc1nc2[nH]cnc2c(=O)[nH]1
inactive: U-251 > 100 µM | NCI-H226 > 100 µM | SF-295 > 100 µM | EKVX > 100 µM | RXF 393 > 100 µM | DMS-273 > 100 µM | SK-MEL-2 > 100 µM | SW-620 > 100 µM | DMS-114 > 100 µM | HCT-116 > 100 µM | SNB-75 > 100 µM | CCRF-CEM > 100 µM | NCI-H460 > 100 µM | CAKI-1 > 100 µM | SR > 100 µM | SF-268 > 100 µM | SNB-78 > 100 µM

CC(C)(C)c1cc(-c2c3nc(c(-c4cc(C(C)(C)C)cc(C(C)(C)C)c4)c4ccc([nH]4)c(-c4cc(C(C)(C)C)cc(C(C)(C)C)c4)c4nc(c(-c5cc(C(C)(C)C)cc(C(C)(C)C)c5)c5ccc2[nH]5)C=C4)C=C3)cc(C(C)(C)C)c1
inactive: U-251 > 100 µM | NCI-H226 > 100 µM | SF-295 > 100 µM | EKVX > 100 µM | RXF 393 > 100 µM | DMS-273 > 100 µM | SK-MEL-2 > 100 µM | SW-620 > 100 µM | DMS-114 > 100 µM | HCT-116 > 100 µM | SNB-75 > 100 µM | CCRF-CEM > 100 µM | NCI-H460 > 100 µM | CAKI-1 > 100 µM | SR > 100 µM | SF-268 > 100 µM | SNB-78 > 100 µM

C=C(C)[C@H](O)C(O)CC(C)[C@@H]1CCC23CC12CCC1[C@@]2(C)CCC(OC(C)=O)C(C)(C)C2CC(OC2OC(COC(C)=O)C(O)C(O)C2O)[C@]13C (stereo not given in full)
inactive: U-251 4.74 µM | NCI-H226 5.45 µM | SF-295 6.59 µM | EKVX 6.67 µM | RXF 393 2.9 µM | DMS-273 5.66 µM | SK-MEL-2 8.83 µM | SW-620 6.14 µM | DMS-114 4.91 µM | HCT-116 3.8 µM | SNB-75 3.4 µM | CCRF-CEM 2.62 µM | NCI-H460 4.78 µM | CAKI-1 6.22 µM | SF-268 5.31 µM | SNB-78 7.16 µM

CN1CC(=O)N(C)c2[nH]cnc2C1=O
inactive: U-251 > 100 µM | NCI-H226 > 100 µM | SF-295 > 100 µM | EKVX > 100 µM | RXF 393 > 100 µM | DMS-273 > 100 µM | SW-620 > 100 µM | DMS-114 > 100 µM | SNB-75 > 100 µM | CCRF-CEM > 100 µM | NCI-H460 > 100 µM | SR > 100 µM | SF-268 > 100 µM | SNB-78 > 100 µM

C(=C\c1ccc2ccccc2c1Nc1ccccc1)/c1ccccc1
inactive: U-251 25.9 µM | NCI-H226 33.2 µM | SF-295 41.9 µM | EKVX > 100 µM | RXF 393 8.22 µM | DMS-273 32.7 µM | SK-MEL-2 > 60.5 µM | SW-620 60.3 µM | DMS-114 38.8 µM | HCT-116 17.8 µM | SNB-75 15.7 µM | CCRF-CEM 11.9 µM | NCI-H460 27.9 µM | CAKI-1 23.2 µM | SR 15.2 µM | SF-268 36.2 µM | SNB-78 38.6 µM

O=C1c2ccc3c4ccccc4n(-c4ccccc4)c3c2C(=O)N1c1ccc(Cl)cc1
inactive: U-251 > 100 µM | NCI-H226 > 100 µM | SF-295 > 100 µM | EKVX > 100 µM | RXF 393 > 100 µM | DMS-273 > 100 µM | SK-MEL-2 > 100 µM | SW-620 > 100 µM | DMS-114 > 100 µM | HCT-116 > 100 µM | SNB-75 > 100 µM | CCRF-CEM > 100 µM | NCI-H460 > 100 µM | CAKI-1 > 100 µM | SR > 100 µM | SF-268 > 100 µM | SNB-78 > 100 µM

Cc1ccc(NC(=O)C2C3C=CC(O3)C2C(=O)O)cc1 (stereo not given)
inactive: U-251 > 100 µM | NCI-H226 > 100 µM | SF-295 > 100 µM | EKVX > 100 µM | RXF 393 23.6 µM | DMS-273 > 100 µM | SK-MEL-2 > 100 µM | SW-620 8.83 µM | DMS-114 66.8 µM | HCT-116 > 100 µM | SNB-75 > 100 µM | CCRF-CEM 83.9 µM | NCI-H460 > 100 µM | SR > 100 µM | SF-268 > 100 µM | SNB-78 > 100 µM

ON=C1CCC(c2ccccc2)CC1 (stereo not given)
inactive: U-251 > 100 µM | NCI-H226 > 100 µM | SF-295 > 100 µM | EKVX > 100 µM | RXF 393 > 100 µM | DMS-273 > 100 µM | SK-MEL-2 > 100 µM | SW-620 > 100 µM | DMS-114 > 100 µM | HCT-116 > 100 µM | SNB-75 > 100 µM | CCRF-CEM > 100 µM | NCI-H460 > 100 µM | CAKI-1 > 100 µM | SF-268 > 100 µM | SNB-78 > 100 µM

CN(C)c1ccc(Cc2cc(C(C)(C)C)cc(C(C)(C)C)c2O)cc1
inactive: U-251 15.2 µM | SF-295 18.9 µM | EKVX 22.1 µM | RXF 393 16.4 µM | DMS-273 17.4 µM | SK-MEL-2 6.87 µM | SW-620 16.9 µM | DMS-114 14.6 µM | HCT-116 13.2 µM | SNB-75 31.2 µM | CCRF-CEM 60.1 µM | NCI-H460 18.5 µM | CAKI-1 19.1 µM | SR 14.6 µM | SF-268 17.3 µM | SNB-78 18.5 µM

CC1=C2C(c3ccccc3)(c3ccccc3)C3C=CC2(C=N3)N(C(=O)NC2CCCCC2)C1=O (stereo not given)
inactive: U-251 16.6 µM | SF-295 16.9 µM | EKVX 14.8 µM | DMS-273 17.9 µM | SW-620 17.3 µM | DMS-114 17.9 µM | HCT-116 16 µM | CCRF-CEM 16.5 µM | CAKI-1 12.6 µM | SR 17.1 µM | SF-268 17.4 µM | SNB-78 16.3 µM

CC1(C)O[C@H]2[C@H](O)C[C@](O)(CO)C[C@H]2O1
inactive: U-251 > 100 µM | NCI-H226 > 100 µM | SF-295 > 100 µM | EKVX > 100 µM | RXF 393 > 100 µM | DMS-273 > 100 µM | SK-MEL-2 > 100 µM | SW-620 > 100 µM | DMS-114 > 100 µM | HCT-116 > 100 µM | SNB-75 48.2 µM | NCI-H460 > 100 µM | CAKI-1 > 100 µM | SR > 100 µM | SNB-78 > 100 µM

c1ccc([B-]23Oc4ccccc4[NH+]2c2ccccc2O3)cc1 (stereo not given)
inactive: U-251 > 100 µM | NCI-H226 > 100 µM | SF-295 > 100 µM | EKVX > 100 µM | RXF 393 > 100 µM | DMS-273 54.6 µM | SW-620 33.2 µM | DMS-114 24.9 µM | HCT-116 > 100 µM | SNB-75 > 100 µM | CCRF-CEM 29.6 µM | CAKI-1 > 100 µM | SR 37 µM | SF-268 > 100 µM | SNB-78 77.4 µM

CC1(C)CC(N(C(=O)/C=C/c2ccc([N+](=O)[O-])o2)C2CCCCC2)CC(C)(C)N1
inactive: U-251 5.35 µM | SF-295 13.5 µM | EKVX 13.9 µM | DMS-273 5.52 µM | SW-620 2.55 µM | DMS-114 2.55 µM | HCT-116 3.18 µM | SNB-75 10.5 µM | CCRF-CEM 3.25 µM | NCI-H460 3.71 µM | CAKI-1 5.52 µM | SR 5.89 µM | SF-268 7.62 µM | SNB-78 10.5 µM

O=[N+]([O-])c1ccccc1[S+]([O-])c1ccccc1 (stereo not given)
inactive: U-251 41.2 µM | NCI-H226 49.9 µM | SF-295 90.8 µM | RXF 393 84.1 µM | DMS-273 47.2 µM | SK-MEL-2 > 100 µM | SW-620 > 100 µM | DMS-114 22.1 µM | HCT-116 57.9 µM | SNB-75 22.1 µM | CCRF-CEM 47.8 µM | NCI-H460 53 µM | CAKI-1 60.4 µM | SR 71.8 µM | SF-268 77.6 µM | SNB-78 56.9 µM

Reference: ChEMBL document CHEMBL1201862, “PubChem BioAssay data set” (2004)
